According to patent US5373089A, “Oxytocin antagonist” (Northwestern University, priority 1993, dated 1994):
Starred links: 1 amine or outer side, 2 acyl side, 3 side chain; linkers in the order of their positions; H or OH if unused. Positions of bridges follow the written chain, without caps; N, C: chain ends. Non-standard residues stand in square brackets, D forms with d. Residues, ends and D or L forms follow the SMILES beside them. X1 = O=C(CC1(S[*:2])CCCCC1)[*:1]; Pen = CC(C)(S)[C@H](N)C(=O)O; Orn = NCCC[C@H](N)C(=O)O; Mpa = O=C(O)CCS

Legend:
oxytocin = details: reported in the cited literature; cited from earlier work
ADH = ADH bioassay (alteration in urine output due to ADH); format: in vivo; details: in vivo
Experimental: The above compound was also tested for antagonism to vasopressin. Anti-ADH activity can be determined by measuring the alteration in urine output due to ADH in the presence and absence of the antagonist. A suitable ADH-assay is described in Sawyer, et al., Endocrinology, 63:694 (1958). […] The ratio of oxytocin antagonism to ADH antagonism was very high, viz. over 1, 866, as compared with 200 for the compositions disclosed in the parent applications.
The anti-ADH activity is measured by the alteration in urine […] in the presence and absence of the antagonist to determine the specificity of the antagonist. The anti-ADH assay is described in Sawyer, et al., Endocrinology, 63:694 (1958).

ESTROUS RAT UTERUS = assay: Oxytocic bioassay (isolated rat uterus, integrated contraction response to oxytocin); format: cell-based
Description: The protocol used for the oxytocin bioassay procedure is derived from procedures described in a paper by Sawyer, et al., Endocrinology, 106:81 (1980), which in turn was based on reports of Munsick, Brit. J. Pharmacol., 3:328 (1960), and Holton, Brit. J. Pharmacol., 3:328 (1948). The assay calculations for the pA2 estimates are described by Schild, British J. Pharmacology, 2:189 (1947). The major difference in the present procedure from those reported by others in the field is that the area under the contraction is integrated where most other techniques calculate the amplitude. Integration provides much more consistent and reliable results although the pA2 estimates are approximately an order of magnitude lower than those reported using amplitude of the contraction as the endpoint.
1. Animals--a 1.5 cm piece of uterus from a virgin rat (Holtzman) in natural estrus is used for the assay.
2. Buffer/Assay Bath--The buffer used is Munsicks. […] The buffer is gassed continuously with 95% oxygen; 5% carbon dioxide giving a pH of 7.4. The temperature of the assay bath is 37° C. A 10 ml assay bath is used that contains a water jacket for maintaining the temperature and inlet and outlet spikets for adding and removing buffer.
3. Polygraph/transducer--The piece of uterine tissue used for the assay is anchored at one end and connected to a Statham Strain Gauge Force Transducer at the other end which in turn is attached to a Grass Polygraph Model 79 for monitoring the contractions.
4. Assay Protocol. (a) The tissue is equilibrated in the assay bath for one hour with washing with new buffer every fifteen minutes. One gram of tension is kept on the tissue at all times.
(b) The tissue is stimulated initially with oxytocin at 10 nM to "acclimate" the tissue and with […] KCl to determine the maximum contractile response.
(d) The tissue is exposed to oxytocin (Calbiochemical, San Diego, Calif.) for one minute and washed out. There is a three minute interval before addition of the next dose of the agonist or antagonist. When the antagonist is tested, it is given five minutes before the agonist. The agonist is given for one minute. All responses are integrated using a 7P10 Grass Integrator. This is the major difference between the present protocol and others in the literature which usually measure amplitude of the contractions as the response. A single concentration of oxytocin, equal to 80% of the maximum response, is used to test the antagonist. […] This is repeated three times for each dose of antagonist for a three point assay.
(e) Calculations for pA2 : The dose-response (DR) ratios are calculated for antagonist and a Schild's Plot is performed by plotting the Log (DR-1) vs. Log of antagonist concentration. The line plotted is calculated by least squares regression analysis. The pA2 is the concentration of antagonist at the point where the regression line crosses the 0 point of the Log (DR-1) ordinate. The pA2 is the negative Log of the concentration of antagonist that will reduce the response to the agonist by one-half.
The protocol used for the oxytocin bioassay procedure is derived from procedures described in a paper by Sawyer, et al., Endocrinology, 106:81 (1980), which in turn was based on reports of Munsick, Brit. J. Pharmacol., 3:328 (1960), and Holton, Brit. J. Pharmacol., 3:328 (1948). The assay calculations for the pA2 estimates are described by Schild, Brit. J. Pharmacol. (1947). The major difference in procedure from those previously reported was the integration of the area under the contraction instead of merely calculating the amplitude. Integration provides more consistent and reliable results, although the pA2 estimates are about an order of magnitude lower than those reported using amplitude of the contraction as the endpoint.
A 1.5 cm piece of uterus from a virgin rat (Holtzman) in natural estrus is used for the assay.
The buffer used is Munsick's. […]

RAT OXYTOCIN RECEPTOR = target: T1, RAT OXYTOCIN RECEPTOR (Rattus norvegicus, UniProt P70536); assay: Oxytocin receptor assay, pregnant rat uterus (P21) membranes, 3H-OT competition; format: binding
T1 construct: from tissue; host or cells: uterus of day-21 pregnant Holtzman rats, sucrose-gradient membrane fraction
T1 sequence (P70536 1-388): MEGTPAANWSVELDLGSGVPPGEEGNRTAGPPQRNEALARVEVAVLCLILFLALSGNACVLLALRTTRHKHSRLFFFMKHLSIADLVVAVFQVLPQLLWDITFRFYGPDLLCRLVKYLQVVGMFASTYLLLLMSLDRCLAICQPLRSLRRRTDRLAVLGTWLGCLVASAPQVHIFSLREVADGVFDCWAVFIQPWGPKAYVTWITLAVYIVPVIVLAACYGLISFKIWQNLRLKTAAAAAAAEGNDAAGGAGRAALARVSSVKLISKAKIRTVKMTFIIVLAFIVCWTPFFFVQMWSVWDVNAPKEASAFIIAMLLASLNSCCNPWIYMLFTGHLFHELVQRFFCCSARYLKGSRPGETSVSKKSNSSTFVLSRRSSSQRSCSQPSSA
Experimental: Uterine tissue was removed on day 21 of pregnancy (delivery=Days 211/2 to 221/2) from Holtzman rats. The tissue was emptied of its contents, rinsed in ice cold buffer, cut into small pieces and frozen at -70° C. until homogenization.
(§1) Oxytocin receptors (OTrs) reside on the cell membrane and are present at high concentrations at the end of pregnancy in uterine tissue. Frozen tissue is homogenized in Tris buffer, the homogenate filtered, and the filtrate centrifuged at 1000 g for 15 minutes at 4° C. The supernatant is centrifuged at 40,000 g for 30 minutes and the pellet containing the cell membranes resuspended in 10% sucrose. Density gradient ultracentrifugation is then performed by placing the 10 % sucrose suspension on top of 35% sucrose and centrifuging for 30 minutes in a swing bucket rotor at 105,000 g. The membranes at the interface of the 10%/35% sucrose are removed and resuspended in Tris buffer containing EDTA for 30 minutes. This procedure removes divalent cation and results in dissociation of any endogenously bound OT to the receptor. This mixture is then centrifuged for 15 minutes at 100,000 g and the pellet containing the membrane OTrs resuspended in Tris, PMSF, Mg^++, buffer by sonication.
(§2) The binding assay consist of 0.1 ml of 20,000 cmp of tritium labeled OT (New England Nuclear, […]), 0.1 ml of OT antagonist added at increasing concentration, 0.25 ml of buffer and 0.05 ml of membrane (70-150 ug protein). A nonspecific tube has 100× of cold OTA added to it. The incubation is for 30 minutes at 30 ° C. The membrane is pelleted by centrifugation in ultraclear mini tubes (5×41 mm) for 30 minutes at 105,000 g. The resulting pellet containing the bound ^3 H-OT is dissolved in 0.1N NaOH at 45 ° C. for 30 minutes and this mixture is then placed in liquid scintillation counting fluid and counted for dpms in a scintillation counter.
(§3) The data is analyzed by nonlinear curve fitting methods using McPherson's EBDA (J Pharmacol Methods 14:213-228, 1985) and Munson and Rodbard's LIGAND (Anal Biochem 107:220-239, 1980) program for saturation and competition analysis for determining Kds and Kis.

HUMAN OXYTOCIN RECEPTOR = target: T2, HUMAN OXYTOCIN RECEPTOR (Homo sapiens, UniProt P30559); assay: Oxytocin receptor assay, human myometrial tissue membranes, 3H-OT competition; format: binding
T2 construct: Oxytocin receptors (OTrs) reside on the cell membrane and are present at high concentrations at the end of pregnancy in uterine tissue; from tissue; host or cells: human myometrium from cesarean section patients, sucrose-gradient membrane fraction
T2 sequence (P30559 1-389): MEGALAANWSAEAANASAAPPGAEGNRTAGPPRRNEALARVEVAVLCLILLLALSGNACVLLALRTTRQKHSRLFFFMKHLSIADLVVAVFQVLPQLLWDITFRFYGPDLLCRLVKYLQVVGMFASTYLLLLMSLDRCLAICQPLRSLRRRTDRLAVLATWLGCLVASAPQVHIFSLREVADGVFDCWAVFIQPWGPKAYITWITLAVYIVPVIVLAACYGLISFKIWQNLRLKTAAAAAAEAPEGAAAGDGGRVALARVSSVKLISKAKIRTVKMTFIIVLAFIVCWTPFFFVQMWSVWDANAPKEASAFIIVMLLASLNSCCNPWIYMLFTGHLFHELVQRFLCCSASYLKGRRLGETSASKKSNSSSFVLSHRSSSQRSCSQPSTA
Experimental: Human myometrial tissue was collected from patients at the time of cesarian section after informed consent. The tissue was rinsed in cold buffer, cut into small pieces and frozen at -70° C. until homogenization.
as §1, §2, §3

1-deamino, ethyloxytocin
pA2 (anti-oxytocic, literature) (oxytocin): 7.2

1deamino[D-Tyr(OEt)^2, Thr^4, Orn^8 ] vasopressin
pA2 (anti-oxytocic, literature) (oxytocin): 8.3

CC[C@H](C)[C@@H]1NC(=O)[C@H](Cc2ccccc2)NC(=O)[C@@H](Cc2ccccc2)NC(=O)CC2(CCCCC2)SSC[C@@H](C(=O)N2CCC[C@H]2C(=O)N[C@@H](CCCNC(=N)N)C(=O)NCC(N)=O)NC(=O)[C@H](CC(N)=O)NC1=O [Compound A, [Pmp^1,D-Phe^2,Phe^3,Ile^4,Arg^8] oxytocin, reference compound] ([dF]FINCPRG-NH2; linker N-5 via X1)
ADH Bioassay pA2 (ADH): 7.66 | Oxytocic Bioassay pA2 (ESTROUS RAT UTERUS; virgin rat uterus in natural estrus, Munsick's buffer 0.5 mM Mg++, integrated contraction area): 7.35

CC[C@H](C)[C@@H]1NC(=O)[C@@H](Cc2c[nH]c3ccccc23)NC(=O)CC2(CCCCC2)SSC(C)(C)[C@@H](C(=O)N2CCC[C@H]2C(=O)N[C@@H](CCCNC(=N)N)C(=O)NCC(N)=O)NC(=O)[C@H](CC(N)=O)NC(=O)[C@H](CCC(N)=O)NC1=O [Compound C2, [Pmp^1, DTrp^2, Pen^6, Arg^8] oxytocin] ([dW]IQN[Pen]PRG-NH2; linker N-5 via X1)
Kd (RAT OXYTOCIN RECEPTOR): 0.87 nM

CC[C@H](C)[C@@H]1NC(=O)[C@@H](Cc2c[nH]c3ccccc23)NC(=O)CC2(CCCCC2)SSC[C@@H](C(=O)N2CCC[C@H]2C(=O)N[C@@H](CCCNC(=N)N)C(=O)NCC(N)=O)NC(=O)[C@H](CC(N)=O)NC(=O)[C@H](CCC(N)=O)NC1=O [Compound C, [Pmp^1, D-Trp^2, Arg^8] oxytocin] ([dW]IQNCPRG-NH2; linker N-5 via X1)
Kd (HUMAN OXYTOCIN RECEPTOR): 5.49 nM | Kd (RAT OXYTOCIN RECEPTOR): 4.93 nM | ADH Bioassay pA2 (ADH): 5.51

CCOc1ccc(C[C@H]2NC(=O)CCSSC[C@@H](C(=O)N3CCC[C@H]3C(=O)N[C@@H](CCCN)C(=O)NCC(N)=O)NC(=O)[C@H](CC(N)=O)NC(=O)[C@H]([C@@H](C)O)NC(=O)[C@H]([C@@H](C)CC)NC2=O)cc1 [E, [Mpa^1,DTyr(Et)^2,Thr^4, Orn^8] oxytocin, reference compound] ([Mpa][dY](Et)ITNCP[Orn]G-NH2; disulfide 1-6)
Kd (HUMAN OXYTOCIN RECEPTOR): 18.9 nM | hOTR (OTA/ANTI) (HUMAN OXYTOCIN RECEPTOR; ratio of binding affinity to ANTAG I, human oxytocin receptor): 1.0 | Kd (RAT OXYTOCIN RECEPTOR): 19.6 nM | rOTr (OTA/ANTI) (RAT OXYTOCIN RECEPTOR; ratio of binding affinity to ANTAG I, rat oxytocin receptor): 0.4 | OXYTOCIC BIOASSAY ED50 (ESTROUS RAT UTERUS; estrous rat uterus, Table 3): 102.33 nM | BIOASSAY ED50 (ESTROUS RAT UTERUS; estrous rat uterus, Table 4): 102.3 nM | BIOASSAY (ANTI/OTA) (ESTROUS RAT UTERUS; ratio to ANTAG I, rat oxytocic bioassay): 0.3

(1-deaminopenicillamine, 2-0-methyltyrosine) oxytocin
pA2 (anti-oxytocic, literature) (oxytocin): 7.8
